Read-outs that look alike come from different tables or passages of the source. Where no end group is shown, it is not given here.
Assays:
[1] = target: DP401 (DPA1*0103/DPB1*0401) (Homo sapiens, UniProt P04440+P20036); experiment: Direct LOCI peptide-MHC-II binding assay, DP401
DR4 (DRA*0101/DRB1*0401) = target: T1, DR4 (DRA*0101/DRB1*0401) (Homo sapiens, UniProt P01903+P01911, A100K/A169T/F76Y/I96L/K127E/L162R/M171V/N62H/P40V/Q125Y/R42H/S133A/S149N/S66Y/V115G/V209L/W38E); experiment: Direct LOCI peptide-MHC-II binding assay, DR4
T1 construct: DRA*01011-181LZFos; DRB1*04011-190LZJunBSP; made in house

[2] = target: T2, DRB1*0813 (DRA*0101/DRB1*0813) (Homo sapiens, UniProt P01903+P01911, A100R/A103L/A169T/F76Y/H45Y/I96L/K41T/L162R/M171V/P40S/Q125H/Q178H/Q39Y/Q99D/R218S/R42G/S66Y/V115G/W38E); experiment: Direct LOCI peptide-MHC-II binding assay, DRB1*0813
T2 construct: DRA*01011-181LZFos; DRB1*08131-190LZJunBSP; made in house

[3] = target: T3, DR2a (DRA*0101/DRB5*0101) (Homo sapiens, UniProt P01903+Q30154); experiment: Competitive LOCI peptide-MHC-II binding assay, DR2a
T3 construct: DRA*01011-181LZFos; DRB5*01011-190LZJunBSP; made in house

[4] = target: T3, DR2a (DRA*0101/DRB5*0101); experiment: Direct LOCI peptide-MHC-II binding assay, DR2a
[5] = target: T4, DRB3*0301 (DRA*0101/DRB3*0301) (Homo sapiens, UniProt P01903+P79483, A169T/A212P/D57E/G115V/L67V/Q178H/R103Q/R40L/Y55F); experiment: Direct LOCI peptide-MHC-II binding assay, DRB3*0301
T4 construct: DRA*01011-181LZFos; DRB3*03011-190LZJunBSP; made in house

DR3 (DRA*0101/DRB1*0301) = target: T5, DR3 (DRA*0101/DRB1*0301) (Homo sapiens, UniProt P01903+P01911, A100K/A102G/A103R/A169T/F55Y/I96L/K41T/L162R/M171V/P40S/Q125H/Q178H/Q39Y/R42S/S66N/T106N/T262R/W38E/Y61H); experiment: Direct LOCI peptide-MHC-II binding assay, DR3
T5 construct: DRA*01011-181LZFos; DRB1*03011-190LZJunBSP; made in house

I-E^d = target: T6, I-E^d (Mus musculus, UniProt P01904+P01915); experiment: Direct LOCI peptide-MHC-II binding assay, I-E^d
T6 construct: I-E^dA1-191LZFos; I-E^dB1-198LZJunBSP; made in house

[6] = pH 7, 48 h 18°C, read-out: DRB3*0301 affinity
[7] = pH 6-7, 48 h 18°C, read-out: DR3 affinity
[8] = pH 7, 48 h 18°C, read-out: DP401 affinity
[9] = pH 6-7.5, 48 h 18°C, read-out: DRB1*0813 affinity
[10] = pH 6-7.5, 48 h 18°C, read-out: DR2a Komp IC50
[11] = pH 6, 48 h 18°C, read-out: DR2a pH6 affinity
[12] = 48 h 18°C, read-out: I-E^D affinity

| Compound | Kd ([1]; DP401 affinity (nM)) [nM] | Kd (DR4 (DRA*0101/DRB1*0401); DR4 affinity (nM)) [nM] | Kd [2] [nM] | IC50 ([3]; DR2a Komp IC50 (nM)) [nM] | Kd [4] [nM] | Kd [5] [nM] | Kd (DR3 (DRA*0101/DRB1*0301)) [nM] | Kd (I-E^d; I-E^D affinity (nM)) [nM] | IC50 [3] [nM] | Kd (I-E^d) [nM] | other results |
| --- | --- | --- | --- | --- | --- | --- | --- | --- | --- | --- | --- |
| CC[C@H](C)[C@H](NC(=O)[C@@H](N)CCCCN)C(=O)N[C@@H](CC(C)C)C(=O)N[C@@H](CCC(=O)O)C(=O)N1CCC[C@H]1C(=O)N[C@@H](Cc1ccccc1)C(=O)N[C@@H](CCCNC(=N)N)C(=O)N[C@@H](CCCCN)C(=O)N[C@@H](Cc1ccc(O)cc1)C(=O)N[C@H](C(=O)N[C@@H](C)C(=O)N[C@@H](Cc1ccccc1)C(=O)N[C@H](C(=O)N[C@H](C(=O)N1CCC[C@H]1C(=O)O)[C@@H](C)CC)[C@@H](C)O)[C@@H](C)O | 30 | 1600 | 11 | 1 | 16 | 1020 | 18 | 2200 | – | – | – |
| CC(C)C[C@H](NC(=O)CNC(=O)[C@H](Cc1c[nH]c2ccccc12)NC(=O)CNC(=O)[C@@H](NC(=O)[C@@H]1CCCN1C(=O)[C@@H](NC(=O)[C@H](C)NC(=O)[C@H](CC(=O)O)NC(=O)[C@H](C)NC(=O)[C@H](Cc1ccccc1)NC(=O)[C@@H](NC(=O)[C@H](CCC(N)=O)NC(=O)[C@H](CS)NC(=O)[C@H](CC(C)C)NC(=O)[C@@H](N)Cc1ccc(O)cc1)C(C)C)[C@@H](C)O)[C@@H](C)O)C(=O)O | – | – | 2990 | – | 3700 | 2060 | 69 | – | > 5000 | > 5000 | Kd [1]: 13 nM; Kd (DR4 (DRA*0101/DRB1*0401)): 18 nM |
| CC[C@H](C)[C@H](NC(=O)[C@H](Cc1ccccc1)NC(=O)[C@@H]1CCCN1C(=O)[C@@H](N)Cc1ccc(O)cc1)C(=O)N[C@@H](CCC(=O)O)C(=O)N[C@@H](CCC(N)=O)C(=O)N[C@@H](CCC(=O)O)C(=O)NCC(=O)N1CCC[C@H]1C(=O)N[C@@H](CCC(=O)O)C(=O)N[C@@H](Cc1ccccc1)C(=O)N[C@@H](Cc1ccccc1)C(=O)N[C@@H](CC(=O)O)C(=O)N[C@@H](CCC(N)=O)C(=O)N[C@@H](CCC(=O)O)C(=O)O | > 5000 | – | > 5000 | > 5000 | > 5000 | – | – | > 5000 | – | – | Kd [5, 6]: 3230 nM; Kd (DR3 (DRA*0101/DRB1*0301); [7]): 289 nM |
| CC[C@H](C)[C@H](NC(=O)[C@H](Cc1c[nH]cn1)NC(=O)[C@H](Cc1c[nH]cn1)NC(=O)[C@H](Cc1c[nH]cn1)NC(=O)[C@H](Cc1c[nH]cn1)NC(=O)[C@H](Cc1c[nH]cn1)NC(=O)[C@H](Cc1c[nH]cn1)NC(=O)[C@@H](N)Cc1ccc(O)cc1)C(=O)N[C@@H](CCC(=O)O)C(=O)NCC(=O)N[C@@H](CCCNC(=N)N)C(=O)N[C@@H](CO)C(=O)N[C@@H](Cc1ccccc1)C(=O)N[C@@H](CCC(=O)O)C(=O)N[C@@H](CCCNC(=N)N)C(=O)N[C@@H](Cc1ccccc1)C(=O)N[C@@H](CCC(=O)O)C(=O)N[C@H](C(=O)N[C@@H](Cc1ccccc1)C(=O)N1CCC[C@H]1C(=O)N[C@@H](CCCCN)C(=O)N[C@@H](CCC(=O)O)C(=O)O)[C@@H](C)CC [6xH Influenza A (PR8) HA 109–119] | – | – | 181 | – | 9 | 1530 | 1430 | – | 23 | 984 | Kd [1]: 1 nM; Kd (DR4 (DRA*0101/DRB1*0401)): 1870 nM |
| CSCC[C@H](NC(=O)[C@H](CCCNC(=N)N)NC(=O)[C@H](CCSC)NC(=O)[C@H](CCCCN)NC(=O)[C@H](CO)NC(=O)[C@@H](NC(=O)[C@@H]1CCCN1C(=O)[C@H](CCCCN)NC(=O)[C@@H]1CCCN1C(=O)[C@@H]1CCCN1C(=O)[C@H](CCCCN)NC(=O)[C@@H]1CCCN1C(=O)[C@@H](N)CC(C)C)C(C)C)C(=O)N[C@@H](C)C(=O)N[C@H](C(=O)N1CCC[C@H]1C(=O)N[C@@H](CC(C)C)C(=O)N[C@@H](CC(C)C)C(=O)N[C@@H](CCSC)C(=O)N[C@@H](CCC(N)=O)C(=O)N[C@@H](C)C(=O)N[C@@H](CC(C)C)C(=O)N1CCC[C@H]1C(=O)N[C@@H](CCSC)C(=O)N[C@@H](Cc1ccc(O)cc1)C(=O)N[C@@H](Cc1c[nH]cn1)C(=O)N[C@@H](Cc1c[nH]cn1)C(=O)N[C@@H](Cc1c[nH]cn1)C(=O)N[C@@H](Cc1c[nH]cn1)C(=O)N[C@@H](Cc1c[nH]cn1)C(=O)N[C@@H](Cc1c[nH]cn1)C(=O)O)[C@@H](C)O [CLIP 6xH] | – | – | – | – | – | – | – | – | – | – | Kd ([1]; read-out: DP401 affinity): 1 nM; Kd (DR4 (DRA*0101/DRB1*0401); read-out: DR4 affinity): 1 nM; Kd ([2]; read-out: DRB1*0813 affinity): 2 nM; IC50 ([3]; competitive LOCI, 4 nM biotin-PEG-HA306–318 agonist, β chain without biotin, α/β 13/5 nM, pH 6-7.5, L243, 48 h 18°C, average of 2–4 measurements, read-out: DR2a Komp IC50): 1 nM; Kd ([4]; read-out: DR2a pH6 affinity): 1 nM; Kd ([5]; read-out: DRB3*0301 affinity): 1 nM; Kd (DR3 (DRA*0101/DRB1*0301); read-out: DR3 affinity): 1 nM |
| CC[C@H](C)[C@H](NC(=O)CNC(=O)[C@@H](NC(=O)[C@H](Cc1ccccc1)NC(=O)[C@H](CCCCN)NC(=O)[C@H](CO)NC(=O)[C@H](CC(N)=O)NC(=O)[C@H](C)NC(=O)[C@H](CCCCN)NC(=O)[C@@H](NC(=O)[C@H](Cc1ccc(O)cc1)NC(=O)[C@@H](N)CCC(N)=O)[C@@H](C)CC)[C@@H](C)CC)C(=O)N[C@H](C(=O)N[C@@H](CCC(=O)O)C(=O)O)[C@@H](C)O [Clostridium tetanus] | – | – | – | – | – | 1 | – | – | – | 1500 | Kd [1]: 56 nM |
| CC[C@H](C)[C@H](N)C(=O)N[C@H](C(=O)N[C@@H](Cc1ccccc1)C(=O)N[C@@H](CCSC)C(=O)N[C@@H](Cc1c[nH]c2ccccc12)C(=O)N[C@@H](C)C(=O)N[C@H](C(=O)N[C@@H](Cc1c[nH]cn1)C(=O)N[C@@H](Cc1c[nH]cn1)C(=O)O)[C@@H](C)CC)C(C)C [Flu HA1194-202] | – | – | 276 | – | 167 | > 5000 | > 5000 | – | 529 | > 5000 | Kd [1]: > 5000 nM; Kd (DR4 (DRA*0101/DRB1*0401)): > 5000 nM |
| CSCC[C@H](NC(=O)[C@@H](N)Cc1ccccc1)C(=O)N[C@@H](CO)C(=O)N[C@@H](CCCNC(=N)N)C(=O)N[C@@H](CCCCN)C(=O)N[C@@H](CC(C)C)C(=O)N[C@@H](Cc1c[nH]cn1)C(=O)N[C@@H](CCCNC(=N)N)C(=O)N[C@@H](Cc1ccc(O)cc1)C(=O)O [Hantaan] | – | – | – | – | > 5000 | – | – | – | 2550 | 3 | – |
| CC[C@H](C)[C@H](NC(=O)[C@@H](N)Cc1ccc(O)cc1)C(=O)N[C@@H](CC(=O)O)C(=O)N[C@H](C(=O)N[C@@H](Cc1c[nH]c2ccccc12)C(=O)N[C@@H](CC(C)C)C(=O)NCC(=O)NCC(=O)N[C@@H](CC(C)C)C(=O)N[C@@H](C)C(=O)N[C@@H](CCC(=O)O)C(=O)N[C@@H](CC(N)=O)C(=O)N[C@@H](Cc1ccccc1)C(=O)N[C@@H](CC(C)C)C(=O)N1CCC[C@H]1C(=O)N[C@@H](Cc1ccc(O)cc1)C(=O)O)C(C)C [Thyroid peroxidase] | 602 | > 5000 | > 5000 | 691 | 2140 | 3180 | > 5000 | > 5000 | – | – | – |
| FLIDLAFLI [Pox.o42.con A2] | – | – | – | – | – | – | – | – | – | – | Kd [1, 8]: 179 nM; Kd (DR4 (DRA*0101/DRB1*0401); pH 6-7.5, 48 h 18°C, read-out: DR4 affinity): > 5000 nM; Kd [2, 9]: > 5000 nM; IC50 [3, 10]: 4280 nM; Kd [4, 11]: > 5000 nM; Kd [5, 6]: > 5000 nM; Kd (DR3 (DRA*0101/DRB1*0301); [7]): > 5000 nM; Kd (I-E^d; [12]): > 5000 nM |
| FLYGALLLA [MBP] | 34 | > 5000 | > 5000 | > 5000 | > 5000 | – | > 5000 | > 5000 | – | – | – |
| GVTYEIDLTNKN [Mycobact leprea] | > 5000 | 2550 | > 5000 | > 5000 | > 5000 | > 5000 | 4350 | > 5000 | – | – | – |
| HHHHHHIEGRFAALWFRNHFVFGGGTK [6xH Lambda 2(315)] | 2 | 11 | 8 | 20 | 5 | 1200 | 882 | 26 | – | – | – |
| WMARRHAER [Brucella] | – | – | – | – | > 5000 | – | – | – | > 5000 | 6 | – |
| YILFLVKMNALRRLPV | – | – | – | – | – | – | – | – | – | – | Kd [1, 8]: 45 nM; Kd [2, 9]: 78 nM; IC50 [3, 10]: 20 nM; Kd [4, 11]: 5 nM; Kd [5, 6]: 3 nM; Kd (DR3 (DRA*0101/DRB1*0301); [7]): 39 nM; Kd (I-E^d; [12]): 582 nM |
| YLFFYRKSV [TERT572Y] | > 5000 | 1590 | 95 | > 5000 | 2650 | – | > 5000 | 322 | – | – | – |

From paper PMC2690590, “Functional recombinant MHC class II molecules and high-throughput peptide-binding assays” (Immunome Research, 2009)
